Patent publication US8148347B2, “Inhibition of interaction of PSD93 and PSDS95 with nNOS and NMDA receptors” (The Johns Hopkins University, priority 2000, dated 2012)

Legend:
[1] = system: Male Sprague-Dawley rats; assay: radiant heat tail-flick test, baseline and NMDA-induced thermal hyperalgesia; assay type: in vivo, rat; conditions: for percentage change of TF latency (baseline tail-flick latency): without NMDA, compared to the control group
Source text: To examine whether PSD-95/SAP90 was required for thermal hyperalgesia triggered through NMDA receptor activation, we made an antisense oligonucletide (OND) corresponding to the PDZ domain nucleotides 241 to 258 (5′-[…]-3′; SEQ ID NO: 1) of rat PSD-95/SAP90 mRNA, as well as the sense OND and missense OND (5′-[…]-3′; SEQ ID NO: 2). All of the ONDs were compared to the Gene Bank database (GenBank accession number M96853) and found not to be complementary to any registered nucleotide sequences. The effects of antisense, sense and missense ONDs on baseline and NMDA-induced tail-flick latencies were assessed. […] To identify that NMDA-induced thermal hyperalgesia was produced specifically through NMDA receptor activation but not non-NMDA receptor activation, we observed the effects of a selective NMDA receptor antagonist, MK-801, and a selective non-NMDA receptor antagonist, DNQX, on NMDA-induced facilitation of the tail-flick reflex. […] In addition, motor weakness or dysfunction was not observed in locomotor tests (including placing reflex, grasping reflex and righting reflex) in any of the treated animals including the antisense groups (data not shown).
Animal preparation and behavioral testing. All experiments were carried out with the approval of the Animal Care Committee at the Johns Hopkins University and were consistent with the ethical guidelines of the National Institutes of Health and the International Association for the Study of Pain. Male Sprague-Dawley rats (250-300 g) were implanted with an intrathecal PE-10 catheter into the subarachnoid space at the rostral level of the spinal cord lumbar enlargement through an incision at the atlanto-occipital membrane according to the method as described.^25,27 One week or more later, the rats were injected intrathecally with saline or ONDs every 24 h for 4 days. On the fifth day, saline, NMDA, MK-801+NMDA or DNQX+NMDA was given intrathecally. Nociception was evaluated by the radiant heat tail-flick test. The doses and time point of maximal effect of NMDA used in the present study were determined based on a previous study.^24 The tail-flick apparatus (Model 33B Tail Flick Analgesy Meter, IITC Life Science, Woodland Hills, Calif., USA) generated a beam of radiant heat that was focused on the underside of the tail, 5 cm from the tip. A cut-off time latency of 13.5 s was used to avoid tissue damage to the tail. Nociception was assessed by the time required to induce tail-flick after applying radiant heat to the skin of the tail. The latency of reflexive removal of the tail from the heat was measured automatically to the nearest 0.01 s. Tail-flick latency was measured five times, and the basal latency was defined as the mean. Tail-flick data were expressed as percentage change calculated by the formula: (trial latency−baseline latency)/(baseline latency)×100%. Finally, PE-10 catheter position from each animal was confirmed when lumbar enlargement segments were removed for western blot analysis. PCR analysis of PSD-95/SAP90 in rat spinal cord. The cDNA sequences encoding portions of the PSD-95/SAP90 were amplified using the following synthetic OND primers: PSD1 (5′-[…]-3′; SEQ ID NO: 3) and PSD2 (5′-[…]-3′; SEQ ID NO: 4) for amplification of PSD-95/SAP90 codon positions 789-1525. RNA samples (1 μg) from rat spinal cord, brain and muscle were reverse transcribed to generate first-strand cDNA. The PCR reactions were performed for 25 cycles. Each cycle included 30 s at 94° C., 30 s at 55° C., and 30 s at 71° C. The PCR products were directly cloned into the TA cloning vector (Invitrogen Co., San Diego, Calif., USA) and verified by automatic DNA sequencing. Fusion protein construction and preparation. cDNA sequence encoding portion of PSD-95/SAP90 was amplified by PCR and subcloned in-frame into PGEX-2T (GIBCO, Rockville, Md., USA) via the BamHI and EcoRI restriction digest sites. […]

[2] = system: c-fos; assay: c-fos immunohistochemistry in lumbar spinal cord after formalin; assay type: in vivo, rat
Protocol: All of the experiments were carried out with the approval of the Animal Care Committee at the Johns Hopkins University. Thirty-eight male Sprague-Dawley rats (250-300 g, Hilltop Laboratory Animals, Scottsdale, Pa., USA) were implanted with an intrathecal PE-10 catheter at the rostral level of the spinal cord lumbar enlargement according to the method described by Yaksh and Rudy. After 4 to 7 days of recovery, they were intrathecally injected with one of the following agents every 24 hours for 4 consecutive days: saline (10 μl, n=6), PSD-95 antisense oligodeoxynucleotide (ODN) (12.5 μg/10 μl, n=6; 25 μg/10 μl, n=6; 50 μg/10 μl, n=6), sense ODN (50 μg/10 μl, n=5) or missense ODN (50 μg/10 μl, n=9). On the fifth day, formalin (4%, 100 μl) was injected into one of the hindpaws. The number of flinches and shakes of the injected paw was assessed for 1 hour. The observational session was divided into phasic (0-10 min) and tonic (10-60 min) periods. Rats were sacrificed two hours after formalin injection and their lumbar spinal cords were harvested for c-fos immunohistochemistry.

[3] = system: rats; assay: rat neuropathic pain model, unilateral L5 spinal nerve ligation, hind paw withdrawal; assay type: in vivo; conditions: 50 μg/10 μl intrathecal every 24 h for 4 days
Protocol: The effect of the deficiency of PSD-95/SAP90 on mechanical and thermal hyperalgesia in a rat neuropathic pain model was observed. The antisense oligonucleotide (OND) specifically against PSD-95/SAP90 was employed to reduce the expression of PSD-95/SAP90 in spinal cord. The rats were injected intrathecally with saline (10 μl), antisense OND (50 μg/10 μl) or sense OND (50 μg/10 μl) every 24 h for 4 days. The unilateral L5 spinal nerve was ligated. Hind paw withdrawal response to mechanical or heat stimuli was conducted 1 day prior to the surgery and at 3, 5, 7 and 9 days postoperatively. In the saline-treated group, mechanical and thermal hyperalgesia developed within 3 days and persisted for 9 days or longer. […] PSD-95/SAP90 is likely involved in the molecular mechanism of the production of hyperalgesia in neuropathic pain triggered via NMDA receptor activation.

[4] = 50 μg/10 μl intrathecal every 24 h for 4 days + NMDA

Substance	prevention of the NMDA-induced decrease of the tail-flick latency ([1]; 25 μg intrathecal)	NMDA-produced facilitation of the tail-flick reflex after pretreatment ([1]; 25 μg/10 μl and 50 μg/10 μl every 24 h for 4 days)	ΔTF latency (%) ([1]; 25 μg/10 μl intrathecal every 24 h for 4 days + NMDA)	prevention of the NMDA-induced decrease of the tail-flick latency ([1]; 50 μg intrathecal)	ΔTF latency (%) [1, 4]	percentage change of TF latency (baseline tail-flick latency) [1]	tail flick latency in response to NMDA stimulation after recovery ([1]; recovery for an additional four days after treatment)	decrease of the number of Fos-like immunoreactive neurons per section ([2]; 50 μg intrathecal)	changes in the number of Fos-like immunoreactive neurons vs saline-treated group ([2]; 12.5 and 25 μg)	onset of the mechanical hyperalgesia [3]	onset of the thermal hyperalgesia [3]	NMDA-produced facilitation of the tail-flick reflex after pretreatment (attenuated or not) ([1]; 50 μg/10 μl every 24 h for 4 days)
5′-TGTGATCTCCTCATACTC-3′ (DNA, backbone and methylation of C not given here; listed as Rattus rattus) [antisense oligonucletide corresponding to the PDZ domain nucleotides 241 to 258 of rat PSD-95/SAP90 mRNA]	55%	attenuated	−11.65%	82%	−4.72%	0.44±1.95%	returned to normal	48%	failed to produce significant changes	significant delay	significant delay	–
5′-AAGCCCTTGTTCCCATTT-3′ (DNA, backbone and methylation of C not given here; listed as Rattus rattus) [MS, missense OND control, reference compound]	–	–	–	–	−20.96%	−2.05±1.57%	–	–	–	–	–	not
